According to patent US20240277658A1, “NLRP3 ACTIVATORS FOR USE IN THE TREATMENT OF INFECTIOUS DISEASES OR CANCER BY ACTIVATING NLRP3 INFLAMMASOME” (ALBERT-LUDWIGS-UNIVERSITÄT FREIBURG, priority 2020, published 2024):
“And” between values parts separate entries of the source, which are not always exact repeats. Equal values may be shown once. Read-outs that look alike come from different tables or passages of the source.

What was measured:
BMDCs = assay: LDH release (lytic cell death, pyroptosis) from LPS-primed BMDCs; format: cell-based, mouse; settings: for Average (% positive control): LDH release; for cytotoxicity at 25 µM / cytotoxicity at 50 µM / cytotoxicity at 100 µM / cytotoxicity at 18.75 µM / cytotoxicity at 37.5 µM / cytotoxicity at 75 µM: Mus musculus, BMDC
Outline: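 LDH released into medium, detected colorimetrically, served as the pyroptosis read-out in triplicate. LPS-primed (50 ng ml^−1, 3 h) murine bone marrow-derived dendritic cells received test compounds, typically 50 μM, or nigericin (5 μM), R837 or CL097 (100 μM) for 3 hours.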

NLRP3 inflammasome = target: T1, NLRP3 inflammasome (Mus musculus, UniProt Q8R4B8); assay: IL-1β release from LPS-primed BMDCs (ELISA) as readout of NLRP3 inflammasome activation; format: cell-based
T1 construct: endogenous in cells; host or cells: primary mouse bone marrow-derived dendritic cells (BMDCs), LPS-primed
Outline: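 NLRP3 inflammasome activation was read out as IL-1β released into the supernatant, measured by ELISA. Murine BMDCs were primed with LPS (50 ng ml^−1, 3 hours), then incubated with compounds for 3 hours, with each condition run in three technical replicates. Nigericin at 5 μM acted as the positive control activator, and IL-1β release was also expressed as a percentage of that control.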

[1] = compound 50 μM, positive control nigericin 5 μM
[2] = compound 50 μM, LPS-primed BMDCs, read-out: Average LDH release (% of max.)
[3] = single replicates, compound 50 μM, LPS-primed BMDCs, read-out: LDH release (% of max.)
[4] = IL-1β release, compound 50 μM, positive control nigericin 5 μM
[5] = compound 50 μM, LPS-primed BMDCs
[6] = single replicates, compound 50 μM, LPS-primed BMDCs

T1 sequence (Q8R4B8 whole entry): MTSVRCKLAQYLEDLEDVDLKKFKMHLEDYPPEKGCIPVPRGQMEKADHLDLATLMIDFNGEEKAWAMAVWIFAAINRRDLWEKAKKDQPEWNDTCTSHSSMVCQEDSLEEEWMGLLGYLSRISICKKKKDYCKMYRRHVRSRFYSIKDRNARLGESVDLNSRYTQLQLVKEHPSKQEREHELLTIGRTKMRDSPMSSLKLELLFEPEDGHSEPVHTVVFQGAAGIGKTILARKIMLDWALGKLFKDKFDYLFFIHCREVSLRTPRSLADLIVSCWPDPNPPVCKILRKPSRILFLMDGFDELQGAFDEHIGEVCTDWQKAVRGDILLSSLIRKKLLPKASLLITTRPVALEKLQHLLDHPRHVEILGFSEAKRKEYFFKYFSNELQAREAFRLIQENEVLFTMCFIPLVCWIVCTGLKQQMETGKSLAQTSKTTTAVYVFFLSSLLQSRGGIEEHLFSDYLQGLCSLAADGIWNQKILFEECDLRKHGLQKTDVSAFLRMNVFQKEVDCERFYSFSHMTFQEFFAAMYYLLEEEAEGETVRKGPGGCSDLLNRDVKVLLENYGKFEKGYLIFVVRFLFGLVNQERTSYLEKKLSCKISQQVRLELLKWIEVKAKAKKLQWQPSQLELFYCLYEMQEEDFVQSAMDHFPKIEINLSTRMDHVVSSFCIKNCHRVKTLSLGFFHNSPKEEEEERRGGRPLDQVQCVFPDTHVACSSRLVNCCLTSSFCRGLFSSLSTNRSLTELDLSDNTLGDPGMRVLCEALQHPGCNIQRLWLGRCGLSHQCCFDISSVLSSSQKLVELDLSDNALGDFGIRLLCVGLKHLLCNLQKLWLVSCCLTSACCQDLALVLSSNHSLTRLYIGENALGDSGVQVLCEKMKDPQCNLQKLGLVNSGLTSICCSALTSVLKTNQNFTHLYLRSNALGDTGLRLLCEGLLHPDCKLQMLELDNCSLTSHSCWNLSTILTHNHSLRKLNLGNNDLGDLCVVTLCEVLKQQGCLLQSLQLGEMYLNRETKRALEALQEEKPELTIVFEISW

## O=C(Nc1ccc2ncccc2c1)NC1CCCCC1 [EN11-02, 1-cyclohexyl-3-(quin-olin-6-yl)urea]
BMDCs; 25 μM, positive control EN22 25 μM
  Average (% positive control): 20.897 % positive control
BMDCs; 50 μM, positive control EN22 25 μM
  Average (% positive control): 21.105 % positive control
BMDCs; 100 μM, positive control EN22 25 μM
  Average (% positive control): 19.808 % positive control
BMDCs; 25 μM, EN11 series table, read-out: Average LDH release (% of max.)
  cytotoxicity at 25 µM: 10.6%
BMDCs; 25 μM, individual replicate values, EN11 series table, read-out: LDH release (% of max.)
  cytotoxicity at 25 µM: 10.8%
BMDCs; 50 μM, EN11 series table, read-out: Average LDH release (% of max.)
  cytotoxicity at 50 µM: 10.7%
BMDCs; 50 μM, individual replicate values, EN11 series table, read-out: LDH release (% of max.)
  cytotoxicity at 50 µM: 10.4%
BMDCs; 100 μM, individual replicate values, read-out: LDH release (% of max.)
  cytotoxicity at 100 µM: 10.1%
BMDCs; 100 μM, read-out: Average LDH release (% of max.)
  cytotoxicity at 100 µM: 10.1%
NLRP3 inflammasome; 25 μM, EN11 series table
  Average IL-1β: 0.015 ng/mL
NLRP3 inflammasome; 25 μM, individual replicate values, EN11 series table
  IL-1β: 0.015 ng/mL
NLRP3 inflammasome; 50 μM, EN11 series table
  Average IL-1β: 0.042 ng/mL
NLRP3 inflammasome; 50 μM, individual replicate values, EN11 series table
  IL-1β: 0.040 ng/mL and 0.050 ng/mL and 0.036 ng/mL
NLRP3 inflammasome; 100 μM
  Average IL-1β: 0.050 ng/mL
NLRP3 inflammasome; 100 μM, individual replicate values
  IL-1β: 0.053 ng/mL and 0.052 ng/mL and 0.046 ng/mL
NLRP3 inflammasome; IL-1β, 25 μM, positive control EN22 25 μM
  Average (% positive control): 1.019 % positive control
NLRP3 inflammasome; IL-1β, 50 μM, positive control EN22 25 μM
  Average (% positive control): 2.832 % positive control
NLRP3 inflammasome; IL-1β, 100 μM, positive control EN22 25 μM
  Average (% positive control): 3.424 % positive control

## COc1ccc(NC(=O)Nc2ccc(-c3noc(CC4CCCN(Cc5cccc(F)c5C)C4)n3)cc2)cc1 (stereo not drawn) [PM07, 1-[4-(5-((1-(3-fluoro-2-methylbenzyl)piperidin-3-yl)methyl)-1,2,4-oxadiazol-3-yl)phenyl]-3-[(4-methoxy)phenyl] urea]
BMDCs; section 1.4, 18.75 μM, read-out: Average LDH release (% of max.)
  cytotoxicity at 18.75 µM: 51%
BMDCs; section 1.4, 37.5 μM, read-out: Average LDH release (% of max.)
  cytotoxicity at 37.5 µM: 69.3%
BMDCs; section 1.4, 75 μM, read-out: Average LDH release (% of max.)
  cytotoxicity at 75 µM: 85.6%
BMDCs; section 1.4, single replicates, 18.75 μM, read-out: LDH release (% of max.)
  cytotoxicity at 18.75 µM: 50.4%
BMDCs; section 1.4, single replicates, 37.5 μM, read-out: LDH release (% of max.)
  cytotoxicity at 37.5 µM: 67.7%
BMDCs; section 1.4, single replicates, 75 μM, read-out: LDH release (% of max.)
  cytotoxicity at 75 µM: 85.1%
BMDCs; section 1.4, 18.75 μM, positive control EN22 18.75 μM
  Average (% positive control): 71.489 % positive control
BMDCs; section 1.4, 37.5 μM, positive control EN22 18.75 μM
  Average (% positive control): 97.102 % positive control
BMDCs; section 1.4, 75 μM, positive control EN22 18.75 μM
  Average (% positive control): 120.051 % positive control
NLRP3 inflammasome; 18.75 μM
  Average IL-1β: 1.335 ng/mL
NLRP3 inflammasome; 18.75 μM, individual replicate values
  IL-1β: 1.117 ng/mL and 1.248 ng/mL and 1.641 ng/mL
NLRP3 inflammasome; 37.5 μM
  Average IL-1β: 1.594 ng/mL
NLRP3 inflammasome; 37.5 μM, individual replicate values
  IL-1β: 1.916 ng/mL and 1.571 ng/mL and 1.295 ng/mL
NLRP3 inflammasome; 75 μM
  Average IL-1β: 1.217 ng/mL
NLRP3 inflammasome; 75 μM, individual replicate values
  IL-1β: 1.202 ng/mL and 1.130 ng/mL and 1.320 ng/mL
NLRP3 inflammasome; IL-1β, 18.75 μM, positive control EN22 18.75 μM
  Average (% positive control): 21.124 % positive control
NLRP3 inflammasome; IL-1β, 37.5 μM, positive control EN22 18.75 μM
  Average (% positive control): 25.211 % positive control
NLRP3 inflammasome; IL-1β, 75 μM, positive control EN22 18.75 μM
  Average (% positive control): 19.256 % positive control

## CC(C)Oc1ccccc1NC(=O)NCc1nc(C2CC2)no1 [L01.083, 3-[(3-cyclopropyl-1,2,4-oxadiazol-5-yl)-methyl]-1-[2-(propan-2-yloxy)phenyl]urea]
BMDCs; [1]
  Average (% positive control): 8.649 % positive control
BMDCs; [2]
  cytotoxicity at 50 µM: 6.33%
BMDCs; [3]
  cytotoxicity at 50 µM: 6.8%
NLRP3 inflammasome; [4]
  Average (% positive control): 1.180 % positive control
NLRP3 inflammasome; [5]
  Average IL-1β: 0.085 ng/mL
NLRP3 inflammasome; [6]
  IL-1β: 0.080 ng/mL and 0.077 ng/mL and 0.097 ng/mL

## O=C1CN(c2ccccc2)C(=O)N1Cc1nc(-c2ccco2)no1 [L01.033, 3-{[3-(furan-2-yl)-1,2,4-oxadiazol-5-yl]methyl}-1-phenylimidazolidine-2,4-dione]
BMDCs; [1]
  Average (% positive control): 11.108 % positive control
BMDCs; [2]
  cytotoxicity at 50 µM: 8.13%
BMDCs; [3]
  cytotoxicity at 50 µM: 8%
NLRP3 inflammasome; [4]
  Average (% positive control): 2.698 % positive control
NLRP3 inflammasome; [5]
  Average IL-1β: 0.193 ng/mL
NLRP3 inflammasome; [6]
  IL-1β: 0.197 ng/ml (2×) and 0.186 ng/ml

## N#Cc1ccc(NC(=O)Nc2ccccc2)cc1 [L01.038, 1-(4-cyanophenyl)-3-phenylurea]
BMDCs; [1]
  Average (% positive control): 16.337 % positive control
BMDCs; [2]
  cytotoxicity at 50 µM: 12%
BMDCs; [3]
  cytotoxicity at 50 µM: 12.8%
NLRP3 inflammasome; [4]
  Average (% positive control): 1.956 % positive control
NLRP3 inflammasome; [5]
  Average IL-1β: 0.140 ng/mL
NLRP3 inflammasome; [6]
  IL-1β: 0.166 ng/mL and 0.127 ng/mL and 0.128 ng/mL

## O=[N+]([O-])c1ccc(NC(=S)Nc2cccc(Cl)c2)c(Cl)c1 [AH2, 1-(2-chloro-4-nitrophenyl)-3-(3-chlorophenyl) thiourea]
BMDCs; 25 μM, positive control EN22 10 μM
  Average (% positive control): 29.680 % positive control
BMDCs; 50 μM, positive control EN22 10 μM
  Average (% positive control): 28.819 % positive control
BMDCs; 75 μM, positive control EN22 10 μM
  Average (% positive control): 33.532 % positive control
BMDCs; 25 μM, AH series table, read-out: Average LDH release (% of max.)
  cytotoxicity at 25 µM: 22.8%
BMDCs; 25 μM, individual replicate values, AH series table, read-out: LDH release (% of max.)
  cytotoxicity at 25 µM: 23.9%
BMDCs; 50 μM, AH series table, read-out: Average LDH release (% of max.)
  cytotoxicity at 50 µM: 22.1%
BMDCs; 50 μM, individual replicate values, AH series table, read-out: LDH release (% of max.)
  cytotoxicity at 50 µM: 22.8%
BMDCs; 75 μM, individual replicate values, read-out: LDH release (% of max.)
  cytotoxicity at 75 µM: 25.1%
BMDCs; 75 μM, read-out: Average LDH release (% of max.)
  cytotoxicity at 75 µM: 25.8%
NLRP3 inflammasome; 25 μM, AH series table
  Average IL-1β: 0.194 ng/mL and 0.251 ng/mL
NLRP3 inflammasome; 25 μM, individual replicate values, AH series table
  IL-1β: 0.197 ng/mL and 0.186 ng/mL and 0.200 ng/mL and 0.280 ng/mL and 0.232 ng/mL and 0.243 ng/mL
NLRP3 inflammasome; 75 μM, AH series table
  Average IL-1β: 0.187 ng/mL
NLRP3 inflammasome; 75 μM, individual replicate values, AH series table
  IL-1β: 0.176 ng/ml and 0.193 ng/ml (2×)
NLRP3 inflammasome; IL-1β, 25 μM, positive control EN22 10 μM
  Average (% positive control): 1.942 % positive control and 2.514 % positive control
NLRP3 inflammasome; IL-1β, 75 μM, positive control EN22 10 μM
  Average (% positive control): 1.872 % positive control

## O=C1CN(c2ccccc2)C(=O)N1Cc1nc(-c2cccs2)no1 [L01.089, 1-phenyl-3-{[3-(thio-phen-2-yl)-1,2,4-oxadiazol-5-yl]meth-yl}imidazolidine-2,4-dione]
BMDCs; [1]
  Average (% positive control): 10.402 % positive control
BMDCs; [2]
  cytotoxicity at 50 µM: 7.61%
BMDCs; [3]
  cytotoxicity at 50 µM: 8.67%
NLRP3 inflammasome; [4]
  Average (% positive control): 4.526 % positive control
NLRP3 inflammasome; [5]
  Average IL-1β: 0.324 ng/mL
NLRP3 inflammasome; [6]
  IL-1β: 0.313 ng/mL and 0.316 ng/mL and 0.344 ng/mL

## O=C(Nc1ccccc1)Nc1cccc(N2CCOC2=O)c1 [L01.045, 1-[3-(2-oxo-1,3-oxazol-idin-3-yl)phenyl]-3-phenylurea]
BMDCs; [1]
  Average (% positive control): 7.094 % positive control
BMDCs; [2]
  cytotoxicity at 50 µM: 5.19%
BMDCs; [3]
  cytotoxicity at 50 µM: 5.98%
NLRP3 inflammasome; [4]
  Average (% positive control): 1.568 % positive control
NLRP3 inflammasome; [5]
  Average IL-1β: 0.112 ng/mL
NLRP3 inflammasome; [6]
  IL-1β: 0.103 ng/mL and 0.116 ng/mL and 0.118 ng/mL

## O=C(Nc1ccccc1)Nc1ccc(NC(=O)C2CCOC2)cc1 (stereo not drawn) [L01.101, N-{4-[(phenylcarbamo-yl)amino]phenyl}oxo-lane-3-carboxamide]
BMDCs; [1]
  Average (% positive control): 27.161 % positive control
BMDCs; [2]
  cytotoxicity at 50 µM: 19.9%
BMDCs; [3]
  cytotoxicity at 50 µM: 19.4%
NLRP3 inflammasome; [4]
  Average (% positive control): 15.216 % positive control
NLRP3 inflammasome; [5]
  Average IL-1β: 1.091 ng/mL
NLRP3 inflammasome; [6]
  IL-1β: 1.160 ng/mL and 1.071 ng/mL and 1.041 ng/mL
